We go through one compound from ChEMBL document CHEMBL2073920 (Eur J Pharmacol, 1998).

Data set [1] addresses T1, ATP-dependent translocase ABCB1 (Homo sapiens, UniProt P08183). Kind of data set: TP_TRANSPORTER: inhibition of Rhodamine 123 transepithelial transport (basal to apical)(R123: 5 uM, Midazolam: 100 uM) in Caco-2 cells. It counts as functional, cell-based. The settings on record: caco-2, 100 µM.
The target in data set [2] is T1, ATP-dependent translocase ABCB1. Kind of data set: TP_TRANSPORTER: transepithelial transport (basal to apical) in Caco-2 cells. It is filed as functional, cell-based.

T1 sequence (P08183 whole entry): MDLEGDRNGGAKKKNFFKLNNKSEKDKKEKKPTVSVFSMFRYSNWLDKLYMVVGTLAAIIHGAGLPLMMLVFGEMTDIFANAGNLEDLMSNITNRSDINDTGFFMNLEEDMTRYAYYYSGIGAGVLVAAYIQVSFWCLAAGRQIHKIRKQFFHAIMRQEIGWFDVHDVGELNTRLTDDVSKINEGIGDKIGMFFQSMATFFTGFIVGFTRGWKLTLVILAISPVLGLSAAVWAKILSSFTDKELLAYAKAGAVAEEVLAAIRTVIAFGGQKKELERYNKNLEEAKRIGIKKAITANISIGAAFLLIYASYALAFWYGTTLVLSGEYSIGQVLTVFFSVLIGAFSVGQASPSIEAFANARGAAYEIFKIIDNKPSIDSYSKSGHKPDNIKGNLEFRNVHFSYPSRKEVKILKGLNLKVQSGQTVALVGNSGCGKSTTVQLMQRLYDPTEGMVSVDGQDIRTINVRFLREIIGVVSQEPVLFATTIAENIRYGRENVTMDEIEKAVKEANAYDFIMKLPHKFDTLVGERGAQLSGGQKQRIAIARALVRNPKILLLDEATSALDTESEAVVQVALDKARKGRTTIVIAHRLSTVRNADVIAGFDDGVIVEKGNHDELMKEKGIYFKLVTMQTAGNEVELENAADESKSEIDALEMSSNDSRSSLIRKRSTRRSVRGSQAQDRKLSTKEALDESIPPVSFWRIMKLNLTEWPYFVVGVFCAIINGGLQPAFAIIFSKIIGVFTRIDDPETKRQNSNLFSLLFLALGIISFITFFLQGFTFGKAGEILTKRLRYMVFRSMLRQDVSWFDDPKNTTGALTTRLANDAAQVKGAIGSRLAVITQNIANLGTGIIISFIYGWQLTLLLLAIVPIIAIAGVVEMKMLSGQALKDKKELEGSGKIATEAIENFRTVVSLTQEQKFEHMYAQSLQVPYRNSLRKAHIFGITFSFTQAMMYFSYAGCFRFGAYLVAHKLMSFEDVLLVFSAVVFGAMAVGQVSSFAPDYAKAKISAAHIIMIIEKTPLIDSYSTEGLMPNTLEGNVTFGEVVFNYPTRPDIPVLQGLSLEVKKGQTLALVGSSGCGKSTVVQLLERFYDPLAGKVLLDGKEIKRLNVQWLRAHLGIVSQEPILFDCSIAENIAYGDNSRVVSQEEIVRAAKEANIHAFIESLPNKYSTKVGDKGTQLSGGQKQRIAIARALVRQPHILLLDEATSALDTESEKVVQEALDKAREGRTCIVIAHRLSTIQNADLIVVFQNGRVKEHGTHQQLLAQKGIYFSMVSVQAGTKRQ

Regarding `Cc1ncc2n1-c1ccc(Cl)cc1C(c1ccccc1F)=NC2` [MIDAZOLAM], the Activity entry in data set [1] is “inhibitor [(at a rough estimate) 55 % of control]”; in data set [2] it was “substrate [+]”.
